# Patent publication US20110059526A1, “REPROGRAMMING A CELL BY INDUCING A PLURIPOTENT GENE THROUGH USE OF AN HDAC MODULATOR” (NUPOTENTIAL, INC., priority 2008, published 2011)
# Legend:
# [1] = system: Oct-4 expression, primary human lung cells; assay: Quantitative RT-PCR of Oct-4 in primary human lung cells grown with VPA; format: cell-based; conditions: 5 mM VPA, three days, p<0.01
# Procedure: (§1) Cell culture. Primary human lung cells were purchased from Cell Applications (San Diego, Calif.), and were maintained at 37° C. in 95% humidity and 5% CO2 in Dulbecco's modified eagle medium (DMEM, Hyclone) containing 10% fetal bovine serum (FBS, Hyclone) and 0.5% penicillin and streptomycin. Cells were grown in the presence of 1 mM VPA, 5 mM VPA or in the absence of VPA for three days.
# Quantitative RT-PCR. Expression of Oct-4 and Nanog were determined by real-time RT-PCR for each culture condition (0 mM VPA, 1 mM VPA, and 5 mM VPA). Briefly, total RNA was prepared from cultures using Trizol Reagent (Life Technologies, Gaithersburg, Md.) and RNeasy Mini kit (Qiagen; Valencia, Calif.) with DNase I digestion according to manufacturer's protocol. Total RNA (1 μg) from each sample was subjected to oligo(dT)-primed reverse transcription (Invitrogen; Carlsbad, Calif.). Real-time PCR reactions will be performed with PCR master mix on a 7300 real-time PCR system (Applied Biosystems; Foster City, Calif.). For each sample, 1 μl of diluted cDNA (1:10) will be added as template in PCR reactions. The expression level of Oct-4 and Nanog was normalized to GAPD.
# [2] = system: stemness genes, primary human lung cells; assay: Human Embryonic Taqman Low Density Array (TLDA) analysis of stemness genes in VPA-treated cells; format: cell-based; conditions: 5 mM VPA, three days
# Procedure: as §1
# Embryonic Taqman Low Density Array Analysis. Expression levels of several genes that contribute to a cell being pluripotentail (“stemness genes”) were determined using the Human Embryonic Taqman Low Density Array Analysis (TLDA). Several stemness genes were analyzed: GABRB3, LEFTB, NR6A1, PODXL, and PTEN. In addition, the expression level of the DNA methyl transferase DNMT3B was determined. The Applied Biosystems Human Embryonic TLDA, which contains 90 embryonic stem cell and developmental genes and 6 endogenous control genes, was used for quantitative real time RT-PCR to quantify relative expression levels (Applied Biosytems, Foster City, Calif.). Briefly, following reverse-transcription of RNA using the ABI High Capacity cDNA Reverse Transcription Kit (ABI; Foster City, Calif.), 150 ng sample cDNA in 50 μl nuclease-free water+50 μl ABI Universal Taqman 2×PCR Master Mix was pipetted into each port of the TLDA microfluidic card, and analyzed on the ABI 7900HT Fast Real Time PCR System. The ^ΔΔCT method was used to calculate relative quantities (fold change) in gene expression levels in treated cells relative to untreated control cells. The treated cells may also be compared to federally-approved human embryonic stem cells.
# [3] = system: first exon of the Oct-4 gene; assay: Bisulfite sequencing of the Oct-4 promoter/first exon; format: cell-based; conditions: VPA-treated primary human lung cells
# Procedure: as §1
# Bisulfite Sequencing. Bisulfite sequencing is the use of bisulfite treatment of DNA to determine the pattern of methylation. Bisulfite sequencing is based on the fact that treatment of DNA with bisulfite converts cytosine residues to uracil, but leaves 5-methylcytosine residues unaffected. Bisulfite treatment thus introduces specific changes in the DNA sequence that depend on the methylation status of individual cytosine residues, yielding very high-resolution information about the methylation status of a segment of DNA.
# Methylation of pluripotent gene promoters was analyzed by bisulfite sequencing. Briefly, DNA was purified by phenolchloroform-isoamylalcohol extraction. Bisulfite conversion was performed using the EZ DNA Methylation kit following the manufacturer's protocol (Zymo Research; Orange, Calif.). The conversion rate of all cytosines in non-CpG dinucleotides to uracils was 100%. Converted DNA was amplified by PCR using primers for human Oct3/4, Nanog, and SOX2. […]
# [4] = system: Oct-4 gene expression, HLFa; assay: Small molecules, Oct-4 gene expression by qRT-PCR (Table III), HLFa; format: cell-based, human; conditions: dose 5 mM, Rx Time 5
# [5] = system: Oct-4 gene expression, HLFf; assay: Small molecules, Oct-4 gene expression by qRT-PCR (Table III), HLFf; format: cell-based, human; conditions: dose 5 mM, Rx Time 5
# [6] = system: Sox-2 and Nanog gene expression, human dermal fibroblasts; assay: VPA effect on Sox-2 and Nanog gene expression in human dermal fibroblasts (FIG. 17); format: cell-based; conditions: VPA 5 mM, 4-6 days, multiple dermal fibroblast cell types
# Procedure: FIG. 17 is a bar graph reporting the effects of VPA (5 mM) on gene expression of Oct-4, Sox-2 and Nanog in human dermal fibroblasts. Significance relative to control within each cell type: *p<0.05; **p<0.03; and ***p<0.01.
# Quantitative RT-PCR. Expression of Oct-4 was determined by real-time RT-PCR. Briefly, total RNA was prepared from cultures using Trizol Reagent (Life Technologies, Gaithersburg, Md.) and RNeasy Mini kit (Qiagen; Valencia, Calif.) with DNase I digestion according to manufacturer's protocol. Total RNA (1 μg) from each sample was subjected to oligo(dT)-primed reverse transcription (Invitrogen; Carlsbad, Calif.). Real-time PCR reactions will be performed with PCR master mix on a 7300 real-time PCR system (Applied Biosystems; Foster City, Calif.). For each sample, 1 μl of diluted cDNA (1:10) will be added as template in PCR reactions. The expression level of Cot-4 was normalized to glyceraldehyde 3-phosphate-dehydrogenase (GAPD).
# Pluripotency gene expression was increased in multiple dermal fibroblast cell types following exposure to VPA for 4-6 days. mRNA levels were determined by real time qRT-PCR and normalized with GAPDH.
# [7] = system: HDAC and DNMT1 gene expression, BJ dermal fibroblasts; assay: VPA effect on HDAC and DNMT1 gene expression in BJ dermal fibroblasts (FIG. 18); format: cell-based, human; conditions: 500 μM VPA, 7 days, BJFs; HDAC1 p<0.01, SIRT4 p 0.05, DNMT1 p<0.005
# Procedure: FIG. 18 is a bar graph reporting the effects of VPA (500 μM) on HDAC and DNMT1 gene expression in BJ dermal fibroblasts (obtained from ATCC).
# FIG. 18 reports the effects of 500 μM VPA on HDAC and DNMT1 gene expression in BJFs. Cells were exposed to VPA for 7 days. […] Statistical significance was as follows: HDAC1 (p<0.01); SIRT4 (p, 0.05) and DNMT1 (p<0.005).
smiles,measurement,setting,value
"CCCC(CCC)C(=O)O [VPA, valproic acid]",expression of Oct4 up-regulated compared to control cells,[1],~2.7 fold
same,expression of DNA methyltransferase DNMT3B,[2],down-regulated
same,"stemness-related genes not detected in control cells (FOXD3, NR5A2, TERT, LIFR, SFRP2, TFCP2L1, LIN28, SOX2, XIST)",[2],induced
same,"expression of stemness genes GABRB3, LEFTB, NR6A1, PODXL, PTEN",[2]; n=three replicates,up-regulation
same,methylation of cytosines in the first exon of Oct-4,[3],demethylation of two cytosines
same,Oct4 FC,[4],4
same,Oct4 FC,[5],5
same,expression of Sox-2 and Nanog,[6],increase in expression
same,"HDAC1, SIRT4 and DNMT1 gene expression compared to control cells",[7],significantly u-regulated
